Results as given in US7753966B2, “Hair dye stabilizer” (Takasago International Corporation, priority 2006, dated 2010).

Experiments:
[1] = Stability test: remaining dye in liquid hair dye base first preparation by HPLC; format: physicochemical; conditions: finding stated in text
Procedure: 50 g of a liquid hair dye base (Bigen Speedy Color, manufactured by Hoyu Co. Ltd.) was weighed into a separable flask, and 0.1 g of thioglycerol was added. After the above separable flask was purged with nitrogen gas, the whole was stirred under a flow of nitrogen gas. After the resultant was divided into 40 g each in a 100 ml shampoo bottle and purging with nitrogen gas was performed, the bottle was capped, thereby a liquid hair dye base first preparation being prepared.
The liquid hair dye base first preparation of Example 1 was stored in a constant-temperature tank set at room temperature or 40° C. for 30 days. This first preparation was used as a sample.
About 4 g of an acetonitrile solution containing 500 ppm of benzonitrile was placed in a 10 mL sample vial and then the amount was accurately measured. About 0.2 g of the above sample was added thereto and the amount was accurately measured, followed by thorough mixing. The liquid in the sample vial was sucked by means of a syringe and was placed in a vial under filtration. Then, it was analyzed by means of a column ODS-80A in high performance liquid chromatography (HP 1100 manufactured by Hewlett-Packard Company) to measure amounts of remaining dyes in the sample.
A liquid hair dye base first preparation was prepared by performing the same operations as in Example 1 except that thioglycolic acid was used instead of thioglycerol. […]

[2] = Color tone of liquid hair dye base first preparation after storage, visually observed by three panelists; format: physicochemical; conditions: for Color tone: room temperature; for concentration at which a stabilization effect was shown: stored at room temperature for 2 weeks, judged from full-color photographs
Procedure: 40 g of a liquid hair dye base first preparation obtained by adding thioglycerol to a liquid hair dye base (Bigen Speedy Color, manufactured by Hoyu Co. Ltd.) in an amount adjusted as shown in Table 2 was placed in a 100 ml shampoo bottle and, after purging with nitrogen gas was performed, the bottle was capped and stored at room temperature.
Immediately after the passage of a given period of storage time of the shampoo bottle in which the above liquid hair dye base first preparation was placed, the color tone of the liquid hair dye base first preparation was visually observed by three panelists. The color tones in the table show the color tones of the results observed by the largest number of the panelists (the same shall apply hereinafter). Moreover, photographs of change in color tone of the hair dye base first preparation immediately after the passage of the above given period are shown in FIG. 1 to FIG. 3. […]

[3] = 0.1 ppm (0.00001 %) added, 1 Day
[4] = 0.1 ppm (0.00001 %) added, 2 Weeks
[5] = 0.1 ppm (0.00001 %) added, 4 Days
[6] = 1 ppm (0.0001 %) added, 2 Weeks
[7] = 10 ppm (0.001 %) added, 2 Weeks
[8] = 100 ppm (0.01 %) added, 2 Weeks
[9] = 1000 ppm (0.1 %) added, 2 Weeks

Structure (SMILES) | Color tone ([2]; 0.0001 ppm added, 1 Day) | Color tone ([2]; 0.0001 ppm added, 2 Weeks) | Color tone ([2]; 0.0001 ppm added, 4 Days) | Color tone ([2]; 0.001 ppm added, 1 Day) | Color tone ([2]; 0.001 ppm added, 2 Weeks) | Color tone ([2]; 0.001 ppm added, 4 Days) | Color tone ([2]; 0.01 ppm added, 1 Day) | Color tone ([2]; 0.01 ppm added, 2 Weeks) | Color tone ([2]; 0.01 ppm added, 4 Days) | Color tone [2, 3] | Color tone [2, 4] | Color tone [2, 5] | Color tone ([2]; 1 ppm (0.0001 %) added, 1 Day) | Color tone [2, 6] | Color tone ([2]; 1 ppm (0.0001 %) added, 4 Days) | Color tone ([2]; 10 ppm (0.001 %) added, 1 Day) | Color tone [2, 7] | Color tone ([2]; 10 ppm (0.001 %) added, 4 Days) | Color tone ([2]; 100 ppm (0.01 %) added, 1 Day) | Color tone [2, 8] | further results
O=C(O)CS [thioglycolic acid] | – | – | – | – | – | – | – | – | – | – | – | – | – | – | – | – | – | – | – | – | effect on stability of p-nitro-o-phenylenediamine [1]: promotes the deterioration; effect on stability of resorcin [1]: promotes the deterioration
OCCS [thioglycol, 2-mercaptoethanol] | black | brown | black | black | brown | black | black | brown | black | black | brown | black | black | brown | black | black | brown | black | black | brown | Color tone ([2]; 100 ppm (0.01 %) added, 4 Days): black; Color tone ([2]; 1000 ppm (0.1 %) added, 1 Day): brown; Color tone [2, 9]: orange; Color tone ([2]; 1000 ppm (0.1 %) added, 4 Days): orange; Color tone ([2]; 10000 ppm (1 %) added, 1 Day): orange; Color tone ([2]; 10000 ppm (1 %) added, 2 Weeks): orange; Color tone ([2]; 10000 ppm (1 %) added, 4 Days): orange; concentration at which a stabilization effect was shown [2]: ≤ 0.0001 ppm
CC(C)=CCC/C(C)=C/CS [thiogeraniol, (E)-3,7-dimethyl-2,6-octadien-1-thiol] | black | brown | black | black | brown | black | black | brown | black | black | brown | black | black | brown | black | black | brown | black | black | brown | Color tone ([2]; 100 ppm (0.01 %) added, 4 Days): black; Color tone ([2]; 1000 ppm (0.1 %) added, 1 Day): brown; Color tone [2, 9]: brown; Color tone ([2]; 1000 ppm (0.1 %) added, 4 Days): black; Color tone ([2]; 10000 ppm (1 %) added, 1 Day): orange; Color tone ([2]; 10000 ppm (1 %) added, 2 Weeks): orange; Color tone ([2]; 10000 ppm (1 %) added, 4 Days): orange; concentration at which a stabilization effect was shown [2]: ≤ 0.0001 ppm
